Measured values published in BindingDB's records for patent US20250289799 (Jiangsu Yahong Meditech Co., 2025).

molecular target: Ubiquitin carboxyl-terminal hydrolase 1/WD repeat-containing protein 48 (Homo sapiens, UniProt O94782+Q8TAF3); assay: In Vitro USP1  Inhibitory Activity
Method: Experimental Methods1) Preparation of 1× assay buffer: 1× assay buffer (modified Tris buffer) was prepared;2) Compound dilution: The compound was transferred to the assay plate by Echo.

Ubiquitin carboxyl-terminal hydrolase 1/WD repeat-containing protein 48, sequence (O94782 whole entry): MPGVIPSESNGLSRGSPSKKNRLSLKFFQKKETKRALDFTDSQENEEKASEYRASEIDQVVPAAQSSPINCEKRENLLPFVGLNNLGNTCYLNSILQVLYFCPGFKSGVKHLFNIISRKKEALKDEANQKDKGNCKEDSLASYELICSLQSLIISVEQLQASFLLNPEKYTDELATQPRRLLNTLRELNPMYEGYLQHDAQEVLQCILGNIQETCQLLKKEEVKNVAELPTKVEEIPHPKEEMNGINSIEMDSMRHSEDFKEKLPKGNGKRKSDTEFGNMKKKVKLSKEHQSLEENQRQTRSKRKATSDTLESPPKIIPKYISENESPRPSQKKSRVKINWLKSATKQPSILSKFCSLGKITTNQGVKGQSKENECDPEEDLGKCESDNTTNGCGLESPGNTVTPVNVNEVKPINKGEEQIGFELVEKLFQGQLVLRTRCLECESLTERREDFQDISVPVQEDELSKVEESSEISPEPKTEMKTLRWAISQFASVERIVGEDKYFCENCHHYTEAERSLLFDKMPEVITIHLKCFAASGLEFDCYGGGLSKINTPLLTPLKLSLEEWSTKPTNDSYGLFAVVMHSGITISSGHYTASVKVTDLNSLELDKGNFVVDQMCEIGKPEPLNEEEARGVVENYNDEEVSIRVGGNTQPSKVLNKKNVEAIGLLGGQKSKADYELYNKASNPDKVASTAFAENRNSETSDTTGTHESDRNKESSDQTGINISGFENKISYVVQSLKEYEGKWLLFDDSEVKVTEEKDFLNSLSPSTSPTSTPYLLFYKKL
Ubiquitin carboxyl-terminal hydrolase 1/WD repeat-containing protein 48, sequence (Q8TAF3 whole entry): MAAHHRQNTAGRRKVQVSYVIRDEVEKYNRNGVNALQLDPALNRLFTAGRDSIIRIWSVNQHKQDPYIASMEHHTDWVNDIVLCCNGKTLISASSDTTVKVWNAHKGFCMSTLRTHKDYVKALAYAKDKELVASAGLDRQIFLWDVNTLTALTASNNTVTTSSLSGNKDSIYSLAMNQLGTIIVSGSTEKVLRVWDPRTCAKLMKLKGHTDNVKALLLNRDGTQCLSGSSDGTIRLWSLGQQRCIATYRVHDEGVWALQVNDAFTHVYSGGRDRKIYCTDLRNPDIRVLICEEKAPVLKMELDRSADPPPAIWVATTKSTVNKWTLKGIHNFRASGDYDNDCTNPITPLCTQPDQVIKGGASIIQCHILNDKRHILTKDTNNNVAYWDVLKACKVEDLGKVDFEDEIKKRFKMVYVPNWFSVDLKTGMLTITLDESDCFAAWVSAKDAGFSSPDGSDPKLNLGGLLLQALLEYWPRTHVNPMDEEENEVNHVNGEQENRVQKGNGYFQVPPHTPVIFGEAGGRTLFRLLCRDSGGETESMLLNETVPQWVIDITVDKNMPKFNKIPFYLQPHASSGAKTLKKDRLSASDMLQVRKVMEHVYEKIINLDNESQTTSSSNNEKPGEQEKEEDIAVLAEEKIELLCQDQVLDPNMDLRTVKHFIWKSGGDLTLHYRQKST

SMILES	IC50
COc1cc(CNc2nc(-c3c(OC)ncnc3C3CC3)ncc2OC)ccc1-c1nc(C(F)(F)F)cn1C [US20250289799, Example 101]	15 nM
COc1cc(-n2nc(C(F)(F)F)cc2C)ccc1CNc1nc(-c2c(OC)ncnc2C2CC2)ncc1OC [US20250289799, Example 102]	4.4 nM
COc1cc(CNc2nc(-c3c(OC)ncnc3C3CC3)ncc2OC)ccc1-n1nc(C(F)(F)F)cc1C [US20250289799, Example 103]	10 nM
COc1cnc(-c2c(OC)ncnc2C2CC2)nc1NCC12CCC(c3nc(C(F)(F)F)cn3C)(CC1)CC2 [US20250289799, Example 104]	8.8 nM
COc1cnc(-c2c(OC)ncnc2C2CC2)nc1NCc1ccc(-c2nc(C)cn2C(F)F)cc1 [US20250289799, Example 105]	60 nM
COc1cnc(-c2c(OC)ncnc2C2CC2)nc1NCc1ccc(-c2nc(C(F)(F)F)cn2C(C)C)cc1 [US20250289799, Example 106]	2.9 nM
COc1cnc(-c2c(OC)ncnc2C2CC2)nc1NCc1ccc(-c2nc(C(F)(F)F)cn2CF)cc1 [US20250289799, Example 107]	16 nM
COc1ncnc(C2CC2)c1-c1ncc(OC(C)C)c(N(C)CC2CCN(c3nc(C(F)(F)F)cn3C)CC2)n1 [US20250289799, Example 108]	19.7 nM
COc1ncnc(C2CC2)c1-c1ncc(OC(C)C)c(N(C)Cc2ccc(-c3nc(C(F)(F)F)cn3C)cc2)n1 [US20250289799, Example 109]	5.3 nM
COc1ncnc(C2CC2)c1-c1ncc(OC(C)C)c(NCC2CCN(c3nc(C(F)(F)F)cn3C)CC2)n1 [US20250289799, Example 110]	28.6 nM
COc1ncnc(C2CC2)c1-c1ncc(OC(C)C)c(NCc2ccc(-c3nc(C(F)(F)F)cn3C)cc2)n1 [US20250289799, Example 111]	10.4 nM
COc1ncnc(C2CC2)c1-c1ncc(OC(C)C)c(NCC23CCC(c4ccc(C(F)(F)F)cn4)(CC2)CC3)n1 [US20250289799, Example 112]	266 nM
COc1ncnc(C2CC2)c1-c1nc(NCc2ccc(-c3nc(C(F)(F)F)cn3C)s2)c2occc2n1 [US20250289799, Example 113]	23 nM
COc1ncnc(C2CC2)c1-c1nc(NCc2ccc3c(c2)CCN(C)C3=O)c2occc2n1 [US20250289799, Example 114]	648 nM
COc1ncnc(C2CC2)c1-c1nc(NCc2ccc3c(c2)CCN(C(C)C)C3=O)c2occc2n1 [US20250289799, Example 115]	77 nM
COc1ncnc(C2CC2)c1-c1nc(NCc2ccc(OCc3ccccn3)cc2)c2occc2n1 [US20250289799, Example 116]	19.4 nM
CCOCCOc1ccc(CNc2nc(-c3c(OC)ncnc3C3CC3)nc3ccoc23)cc1 [US20250289799, Example 117]	13.8 nM
COc1ncnc(C2CC2)c1-c1nc(NCc2ccc(OC3CC(OC)C3)cc2)c2occc2n1 (configuration not stated) [US20250289799, Example 118]	58 nM
COc1cc(-c2nc(C(F)(F)F)cn2C)ccc1CNc1nc(-c2c(OC)ncnc2C2CC2)nc2ccoc12 [US20250289799, Example 119]	7.6 nM
COc1cc(CNc2nc(-c3c(OC)ncnc3C3CC3)nc3ccoc23)ccc1-c1nc(C(F)(F)F)cn1C [US20250289799, Example 120]	8.9 nM
COc1cc(-n2nc(C(F)(F)F)cc2C)ccc1CNc1nc(-c2c(OC)ncnc2C2CC2)nc2ccoc12 [US20250289799, Example 121]	8.3 nM

SMILES	IC50
COc1cc(CNc2nc(-c3c(OC)ncnc3C3CC3)nc3ccoc23)ccc1-n1nc(C(F)(F)F)cc1C [US20250289799, Example 122]	13 nM
COc1ncnc(C2CC2)c1-c1nc(NCc2ccc(-c3nc(C(F)F)cn3C)cc2)c2occc2n1 [US20250289799, Example 123]	20 nM
COc1ncnc(C2CC2)c1-c1ncc(Cl)c(NCc2ccc(-c3nc(C(F)(F)F)cn3C)cc2)n1 [US20250289799, Example 124]	6.1 nM
COc1ncnc(C2CC2)c1-c1ncc(Cl)c(NCc2ccc(-c3nc(C(F)(F)F)cn3C3CC3)cc2)n1 [US20250289799, Example 125]	3.1 nM
COc1ncnc(C2CC2)c1-c1ncc(Cl)c(NCc2ccc(-c3nc(C(F)(F)F)cn3CF)cc2)n1 [US20250289799, Example 126]	13 nM
[2H]C([2H])([2H])N(Cc1ccc(-c2nc(C(F)(F)F)cn2C2CC2)cc1)c1nc(-c2c(OC)ncnc2C2CC2)ncc1F [US20250289799, Example 128]	2.6 nM
[2H]C([2H])([2H])N(Cc1ccc(-c2nc(C(F)(F)F)cn2CF)cc1)c1nc(-c2c(OC)ncnc2C2CC2)ncc1F [US20250289799, Example 130]	19 nM
COc1ncnc(C2CC2)c1-c1ncc(C#N)c(NCc2ccc(-c3nc(C(F)(F)F)cn3C)cc2)n1 [US20250289799, Example 131]	7.4 nM
C#Cc1cnc(-c2c(OC)ncnc2C2CC2)nc1NCc1ccc(-c2nc(C(F)(F)F)cn2C)cc1 [US20250289799, Example 132]	6 nM
COc1ncnc(C2CC2)c1-c1ncc(OC(F)F)c(NCC2CCN(c3nc(C(F)(F)F)cn3C)CC2)n1 [US20250289799, Example 133]	15 nM
COc1ncnc(C2CC2)c1-c1ncc(OC(F)F)c(NCc2ccc(-c3nc(C(F)(F)F)cn3C)cc2)n1 [US20250289799, Example 134]	3.2 nM
COc1ncnc(C2CC2)c1-c1ncc(OC(F)F)c(NCc2ccc(-n3nc(C(F)(F)F)cc3C)cc2)n1 [US20250289799, Example 135]	3.2 nM
COc1cc(-c2nc(C(F)(F)F)cn2C)ccc1CNc1nc(-c2c(OC)ncnc2C2CC2)ncc1OC(F)F [US20250289799, Example 136]	17 nM
COc1ncnc(C2CC2)c1-c1ncc(CO)c(NCc2ccc(-c3nc(C(F)(F)F)cn3C(C)C)cc2)n1 [US20250289799, Example 137]	24 nM
COCc1cnc(-c2c(OC)ncnc2C2CC2)nc1N(C)Cc1ccc(-c2nc(C(F)(F)F)cn2C(C)C)cc1 [US20250289799, Example 138]	9 nM
C#CCN(Cc1ccc(-c2nc(C(F)(F)F)cn2C)cc1)c1nc(-c2c(OC)ncnc2C2CC2)ncc1OC [US20250289799, Example 139]	5.2 nM
COc1cnc(-c2c(OC)ncnc2C2CC2)nc1N(Cc1ccc(-c2nc(C(F)(F)F)cn2C)cc1)C1CCOC1 (configuration not stated) [US20250289799, Example 140]	73 nM
COc1cnc(-c2c(OC)ncnc2C2CC2)nc1N(Cc1ccc(-c2nc(C(F)(F)F)cn2C)cc1)C1CC1 [US20250289799, Example 141]	9.5 nM
COc1cnc(-c2c(OC)ncnc2C2CC2)nc1N(Cc1ccc(-c2nc(C(F)(F)F)cn2C)cc1)OC [US20250289799, Example 142]	25 nM
COc1cnc(-c2cccc3ccn(C)c23)nc1NCc1ccc(-c2nc(C(F)(F)F)cn2C)cc1 [US20250289799, Example 143]	31 nM
COc1cnc(-c2cccc3ccn(C)c23)nc1NCc1ccc(-n2nc(C(F)(F)F)cc2C)cc1 [US20250289799, Example 144]	68.6 nM

SMILES	IC50
COc1cnc(-c2cccc3c2N(C)CC3)nc1NCc1ccc(-c2nc(C(F)(F)F)cn2C)cc1 [US20250289799, Example 145]	19 nM
COc1cnc(-c2c(C)ncn2C(C)C)nc1NCc1ccc(-c2nc(C(F)(F)F)cn2C)cc1 [US20250289799, Example 147]	364 nM
Cc1ncn(C(C)C)c1-c1nc(NCc2ccc(-c3nc(C(F)(F)F)cn3C)cc2)c2occc2n1 [US20250289799, Example 149]	69.2 nM
Cc1ncn(C(C)C)c1-c1nc(NCC23CCC(c4ccc(C(F)(F)F)cn4)(CC2)CC3)c2occc2n1 [US20250289799, Example 150]	431 nM
COc1cnc(-c2cccnc2C2CC2)nc1N(C)CC1CCN(c2ccccn2)CC1 [US20250289799, Example 151]	72 nM
COc1cnc(-c2cccnc2C2CC2)nc1NCC1CCN(c2nc(C(F)(F)F)cn2C)CC1 [US20250289799, Example 152]	7.5 nM
COc1cnc(-c2cccnc2C2CC2)nc1NCc1ccc(-c2nc(C(F)(F)F)cn2C)cc1 [US20250289799, Example 153]	3.4 nM
COc1cnc(-c2cccnc2C2CC2)nc1NCc1ccc(-n2nc(C(F)(F)F)cc2C)cc1 [US20250289799, Example 154]	6.2 nM
c1ccc(-c2ccc(CNc3nc(-c4cccnc4C4CC4)nc4ccoc34)cc2)nc1 [US20250289799, Example 155]	12 nM
COc1cnc(-c2cccnc2C(C)C)nc1NCc1ccc(-c2nc(C(F)(F)F)cn2C)cc1 [US20250289799, Example 157]	2.9 nM
COc1cnc(-c2cccnc2C(C)C)nc1NCc1ccc(-n2nc(C(F)(F)F)cc2C)cc1 [US20250289799, Example 158]	2.1 nM
COc1cnc(-c2ccccc2N(C)C)nc1NCc1ccc(-c2nc(C(F)(F)F)cn2C)cc1 [US20250289799, Example 159]	1.7 nM
COc1cnc(-c2ccccc2N(C)C)nc1NCc1ccc(-n2nc(C(F)(F)F)cc2C)cc1 [US20250289799, Example 160]	3.6 nM
COc1cnc(-c2c(Cl)cnn2C(C)C)nc1N(C)CC1CCN(c2ccccn2)CC1 [US20250289799, Example 161]	6 nM
COc1cnc(-c2c(Cl)cnn2C(C)C)nc1NCc1ccc(-c2ccccn2)cc1 [US20250289799, Example 162]	3.9 nM
COc1cnc(-c2c(Cl)cnn2C(C)C)nc1NCC1CCN(c2nc(C(F)(F)F)cn2C)CC1 [US20250289799, Example 163]	2.3 nM
COc1cnc(-c2c(Cl)cnn2C(C)C)nc1NCc1ccc(-c2nc(C(F)(F)F)cn2C)cc1 [US20250289799, Example 164]	1.1 nM
COc1cnc(-c2c(Cl)cnn2C(C)C)nc1NCc1ccc(-n2nc(C(F)(F)F)cc2C)cc1 [US20250289799, Example 165]	1.4 nM
CC(C)n1ncc(Cl)c1-c1nc(NCc2ccc(-c3ccccn3)cc2)c2occc2n1 [US20250289799, Example 166]	2.1 nM
CC(C)n1ncc(Cl)c1-c1nc(NCc2ccc(-c3nc(C(F)(F)F)cn3C)cc2)c2occc2n1 [US20250289799, Example 167]	0.45 nM
